Experimental data from US5284852A, “Angiotensin II receptor blocking 2,3,6-substituted quinazolinones” (American Cyanamid Company, priority 1993, dated 1994).

Molecular target: T1, Angiotensin II Receptor (Bos taurus, UniProt P25104)
T1 construct: The brownish tissue forming the adrenal cortex is scraped off and finely minced with scissors before homogenization; tissue Maxwell-Cohen (local slaughter house); host or cells: beef adrenal cortex, microsomal membranes (100,000×g pellet)
T1 sequence (P25104 1-359): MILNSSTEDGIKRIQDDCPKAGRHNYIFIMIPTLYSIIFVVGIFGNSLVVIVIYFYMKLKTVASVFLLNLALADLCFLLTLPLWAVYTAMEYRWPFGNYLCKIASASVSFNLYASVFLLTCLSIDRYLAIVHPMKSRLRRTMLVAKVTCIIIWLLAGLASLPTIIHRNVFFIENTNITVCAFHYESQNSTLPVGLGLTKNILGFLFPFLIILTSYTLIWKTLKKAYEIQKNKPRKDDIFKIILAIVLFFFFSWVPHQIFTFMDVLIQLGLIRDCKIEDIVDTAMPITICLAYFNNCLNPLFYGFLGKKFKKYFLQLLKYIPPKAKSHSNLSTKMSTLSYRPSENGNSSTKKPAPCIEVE
Assay: Receptor binding assay: displacement of [125I](Sar1,Ile8)AngII from beef adrenal cortex microsomal membranes
From the text: Beef adrenals are obtained from a local slaughter house (Maxwell-Cohen). [^125 I](Sar^1,-Ile^8)AngII, S.A. 2200 Ci/mmole, is purchased from Dupont (NEN®, Boston, Mass.). All unlabeled AngII analogs, dimethylsulfoxide (DMSO), nucleotides, bovine serum albumin (BSA) are purchased from Sigma Chemical Co., St. Louis, Mo. U.S.A.
Approximately sixteen (16) to twenty (20) beef adrenal glands are processed as follows: fresh adrenal glands received on crushed ice are cleaned of fatty tissues and the tough membranes encapsulating the glands are removed and discarded. The brownish tissue forming the adrenal cortex is scraped off and finely minced with scissors before homogenization. Care is taken to avoid contamination with medullary tissue during dissection. The scraped cortices are suspended in twenty volumes of an ice-cold buffer medium consisting of 10 mM Tris.HCl (pH 7.4 at 22° C.) and containing 1.0 mM EDTA and 0.2M sucrose. Unless otherwise indicated, all subsequent operation are done at 4° C. […] The homogenate is centrifuged first at low speed (3,000×g) for 10 min. […] A 100 ul aliquot is withdrawn and the protein content of the preparation is determined by the Lowry's method (Lowry, O. H., Rosebrough, N. F., Farr, A. L. and Randall, R. J., Protein measurement with Folin phenol reagent. J. Biol. Chem., […], 265-275, 1951). […]

IC50: 130 nM
SMILES: CCCCc1nc2ccc(COc3ccccc3)cc2c(=O)n1Cc1ccc(-c2ccccc2-c2nnn[nH]2)cc1 [Example 36, 2-Butyl-6-(phenoxymethyl)-3-[[2'-(1H-tetrazol-5-yl) [1,1'-biphenyl]-4-yl]methyl]-4(3H)-quinazolinone]
